From patent publication US10745382B2 (BRISTOL-MYERS SQUIBB COMPANY, priority 2015, dated 2020)
Read-outs that look alike come from different tables or passages of the source.

Target: T1, PD-1/PD-L1 (Homo sapiens, UniProt Q9NZQ7)
T1 construct: made in house; host or cells: HEK293T
Assay: PD-1/PD-L1 Homogenous Time-Resolved Fluorescence (HTRF) binding assay
Conditions: PD-L1-His 10 nM, PD-1-Ig 20 nM, read-out: Range or IC50
Procedure, shortened: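 Additional pairs run were PD-1-Ig with PD-L2-His (20 & 5 nM) and CD80-His with PD-L1-Ig (100 & 10 nM), all human proteins. Buffer: dPBS plus 0.1% BSA, 0.05% Tween-20; time-resolved FRET read-out via 1 nM Eu-cryptate anti-Ig and 20 nM APC anti-His, final concentrations.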

T1 sequence (Q9NZQ7 with tags, fused parts or gaps): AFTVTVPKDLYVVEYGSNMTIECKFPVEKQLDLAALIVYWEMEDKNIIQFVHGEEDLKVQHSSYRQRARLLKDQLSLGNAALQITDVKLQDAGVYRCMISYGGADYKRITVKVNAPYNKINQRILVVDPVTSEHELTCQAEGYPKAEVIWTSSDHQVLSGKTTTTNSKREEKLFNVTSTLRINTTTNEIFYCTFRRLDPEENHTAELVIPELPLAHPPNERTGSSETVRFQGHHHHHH

SMILES | IC50 (value given as range class) | IC50 (numeric IC50)
CCNC(=O)c1cccc(-c2cccc(COc3cc(OCc4cncc(C#N)c4)c(CNC(CO)CO)cc3Cl)c2C)c1C [Example 4009, 3′-((2-chloro-5-((5-cyanopyridin-3-yl)methoxy)-4-(((1,3-dihydroxypropan-2-yl)amino)methyl)phenoxy)methyl)-N-ethyl-2,2′-dimethyl-[1,1′-biphenyl]-3-carboxamide] | 10 to 100 nM | 
CCNC(=O)c1cccc(-c2cccc(COc3cc(OCc4cncc(C#N)c4)c(CNC(C)(CO)CO)cc3Cl)c2C)c1C [Example 4010, 3′-((2-chloro-5-((5-cyanopyridin-3-yl)methoxy)-4-(((1,3-dihydroxy-2-methylpropan-2-yl)amino)methyl)phenoxy)methyl)-N-ethyl-2,2′-dimethyl-[1,1′-biphenyl]-3-carboxamide] |  | 11 nM
CNC(=O)c1cccc(-c2cccc(COc3cc(OCc4cncc(C#N)c4)c(CN4CCCC[C@H]4C(=O)O)cc3Cl)c2C)c1C [Example 4011, (S)-1-(5-chloro-2-((5-cyanopyridin-3-yl)methoxy)-4-((2,2′-dimethyl-3′-(methylcarbamoyl)-[1,1′-biphenyl]-3-yl)methoxy)benzyl)piperidine-2-carboxylic Acid] | 10 to 100 nM | 
CNC(=O)c1cccc(-c2cccc(COc3cc(OCc4cncc(C#N)c4)c(CN4CCC[C@H]4C(=O)O)cc3Cl)c2C)c1C [Example 4012, (5-chloro-2-((5-cyanopyridin-3-yl)methoxy)-4-((2,2′-dimethyl-3′-(methylcarbamoyl)-[1,1′-biphenyl]-3-yl)methoxy)benzyl)-L-proline] | 10 to 100 nM | 
CNC(=O)c1cccc(-c2cccc(COc3cc(OCc4cncc(C#N)c4)c(CN4C[C@H](O)C[C@H]4C(=O)O)cc3Cl)c2C)c1C [Example 4013, (2S,4R)-1-(5-chloro-2-((5-cyanopyridin-3-yl)methoxy)-4-((2,2′-dimethyl-3′-(methylcarbamoyl)-[1,1′-biphenyl]-3-yl)methoxy)benzyl)-4-hydroxypyrrolidine-2-carboxylic Acid] | 10 to 100 nM | 
CNC(=O)c1cccc(-c2cccc(COc3cc(OCc4cncc(C#N)c4)c(CN4C[C@@H](O)C[C@H]4C(=O)O)cc3Cl)c2C)c1C [Example 4014, (2S,4S)-1-(5-chloro-2-((5-cyanopyridin-3-yl)methoxy)-4-((2,2′-dimethyl-3′-(methylcarbamoyl)-[1,1′-biphenyl]-3-yl)methoxy)benzyl)-4-hydroxypyrrolidine-2-carboxylic Acid] | 2010 to 10000 nM | 
CNC(=O)c1cccc(-c2cccc(COc3cc(OCc4cncc(C#N)c4)c(CNC(CO)CO)cc3Cl)c2C)c1C [Example 4015, 3′-((2-chloro-5-((5-cyanopyridin-3-yl)methoxy)-4-(((1,3-dihydroxypropan-2-yl)amino)methyl)phenoxy)methyl)-N,2,2′-trimethyl-[1,1′-biphenyl]-3-carboxamide] | 0.21 to 10 nM | 
CNC(=O)c1cccc(-c2cccc(COc3cc(OCc4cncc(C#N)c4)c(CNC(C)(CO)CO)cc3Cl)c2C)c1C [Example 4016, 3′-((2-chloro-5-((5-cyanopyridin-3-yl)methoxy)-4-(((1,3-dihydroxy-2-methylpropan-2-yl)amino)methyl)phenoxy)methyl)-N,2,2′-trimethyl-[1,1′-biphenyl]-3-carboxamide] | 0.21 to 10 nM | 
CCNC(=O)c1cccc(-c2cccc(COc3cc(OCc4cc(F)cc(F)c4)c(CN4CCCC[C@H]4C(=O)O)cc3Cl)c2C)c1C [Example 4017, (S)-1-(5-chloro-2-((3,5-difluorobenzyl)oxy)-4-((3′-(ethylcarbamoyl)-2,2′-dimethyl-[1,1′-biphenyl]-3-yl)methoxy)benzyl)piperidine-2-carboxylic Acid] | 100 to 2000 nM | 
CCNC(=O)c1cccc(-c2cccc(COc3cc(OCc4cc(F)cc(F)c4)c(CN4CCC[C@H]4C(=O)O)cc3Cl)c2C)c1C [Example 4018, (5-chloro-2-((3,5-difluorobenzyl)oxy)-4-((3′-(ethylcarbamoyl)-2,2′-dimethyl-[1,1′-biphenyl]-3-yl)methoxy)benzyl)-L-proline] | 100 to 2000 nM | 
CCNC(=O)c1cccc(-c2cccc(COc3cc(OCc4cc(F)cc(F)c4)c(CN4C[C@H](O)C[C@H]4C(=O)O)cc3Cl)c2C)c1C [Example 4019, (2S,4R)-1-(5-chloro-2-((3,5-difluorobenzyl)oxy)-4-((3′-(ethylcarbamoyl)-2,2′-dimethyl-[1,1′-biphenyl]-3-yl)methoxy)benzyl)-4-hydroxypyrrolidine-2-carboxylic Acid] | 100 to 2000 nM | 
CCNC(=O)c1cccc(-c2cccc(COc3cc(OCc4cc(F)cc(F)c4)c(CN4CCOC[C@H]4C(=O)O)cc3Cl)c2C)c1C [Example 4020, (S)-4-(5-chloro-2-((3,5-difluorobenzyl)oxy)-4-((3′-(ethylcarbamoyl)-2,2′-dimethyl-[1,1′-biphenyl]-3-yl)methoxy)benzyl)morpholine-3-carboxylic Acid] | 2010 to 10000 nM | 
CCNC(=O)c1cccc(-c2cccc(COc3cc(OCc4cc(F)cc(F)c4)c(CNC(CO)CO)cc3Cl)c2C)c1C [Example 4021, 3′-((2-chloro-5-((3,5-difluorobenzyl)oxy)-4-(((1,3-dihydroxypropan-2-yl)amino)methyl)phenoxy)methyl)-N-ethyl-2,2′-dimethyl-[1,1′-biphenyl]-3-carboxamide] | 100 to 2000 nM | 
CCNC(=O)c1cccc(-c2cccc(COc3cc(OCc4cc(F)cc(F)c4)c(CNC(C)(CO)CO)cc3Cl)c2C)c1C [Example 4022, 3′-((2-chloro-5-((3,5-difluorobenzyl)oxy)-4-(((1,3-dihydroxy-2-methylpropan-2-yl)amino)methyl)phenoxy)methyl)-N-ethyl-2,2′-dimethyl-[1,1′-biphenyl]-3-carboxamide] | 100 to 2000 nM | 
CNC(=O)c1cccc(-c2cccc(COc3cc(OCc4cc(F)cc(F)c4)c(CN4CCCC[C@H]4C(=O)O)cc3Cl)c2C)c1C [Example 4023, (S)-1-(5-chloro-2-((3,5-difluorobenzyl)oxy)-4-((2,2′-dimethyl-3′-(methylcarbamoyl)-[1,1′-biphenyl]-3-yl)methoxy)benzyl)piperidine-2-carboxylic Acid] | 100 to 2000 nM | 
CNC(=O)c1cccc(-c2cccc(COc3cc(OCc4cc(F)cc(F)c4)c(CN4CCC[C@H]4C(=O)O)cc3Cl)c2C)c1C [Example 4024, (5-chloro-2-((3,5-difluorobenzyl)oxy)-4-((2,2′-dimethyl-3′-(methylcarbamoyl)-[1,1′-biphenyl]-3-yl)methoxy)benzyl)-L-proline] |  | 87 nM
CNC(=O)c1cccc(-c2cccc(COc3cc(OCc4cc(F)cc(F)c4)c(CN4C[C@H](O)C[C@H]4C(=O)O)cc3Cl)c2C)c1C [Example 4025, (2S,4R)-1-(5-chloro-2-((3,5-difluorobenzyl)oxy)-4-((2,2′-dimethyl-3′-(methylcarbamoyl)-[1,1′-biphenyl]-3-yl)methoxy)benzyl)-4-hydroxypyrrolidine-2-carboxylic Acid] | 100 to 2000 nM | 
CNC(=O)c1cccc(-c2cccc(COc3cc(OCc4cc(F)cc(F)c4)c(CN4C[C@@H](O)C[C@H]4C(=O)O)cc3Cl)c2C)c1C [Example 4026, (2S,4S)-1-(5-chloro-2-((3,5-difluorobenzyl)oxy)-4-((2,2′-dimethyl-3′-(methylcarbamoyl)-[1,1′-biphenyl]-3-yl)methoxy)benzyl)-4-hydroxypyrrolidine-2-carboxylic Acid] | 100 to 2000 nM | 
CNC(=O)c1cccc(-c2cccc(COc3cc(OCc4cc(F)cc(F)c4)c(CN4CCOC[C@H]4C(=O)O)cc3Cl)c2C)c1C [Example 4027, (S)-4-(5-chloro-2-((3,5-difluorobenzyl)oxy)-4-((2,2′-dimethyl-3′-(methylcarbamoyl)-[1,1′-biphenyl]-3-yl)methoxy)benzyl)morpholine-3-carboxylic Acid] | 2010 to 10000 nM | 
CNC(=O)c1cccc(-c2cccc(COc3cc(OCc4cc(F)cc(F)c4)c(C=O)cc3Cl)c2C)c1C [Example 4028, 3′-((2-chloro-5-((3,5-difluorobenzyl)oxy)-4-formylphenoxy)methyl)-N,2,2′-trimethyl-[1,1′-biphenyl]-3-carboxamide] | 100 to 2000 nM | 
CNC(=O)c1cccc(-c2cccc(COc3cc(OCc4cc(F)cc(F)c4)c(CNC(C)(CO)CO)cc3Cl)c2C)c1C [Example 4029, 3′-((2-chloro-5-((3,5-difluorobenzyl)oxy)-4-(((1,3-dihydroxy-2-methylpropan-2-yl)amino)methyl)phenoxy)methyl)-N,2,2′-trimethyl-[1,1′-biphenyl]-3-carboxamide] | 10 to 100 nM | 
Cc1c(COc2cc(OCc3cncc(C#N)c3)c(CN3CCCC[C@H]3C(=O)O)cc2Cl)cccc1-c1cccc(C(=O)N(C)C)c1C [Example 4030, (S)-1-(5-chloro-2-((5-cyanopyridin-3-yl)methoxy)-4-((3′-(dimethylcarbamoyl)-2,2′-dimethyl-[1,1′-biphenyl]-3-yl)methoxy)benzyl)piperidine-2-carboxylic Acid] | 100 to 2000 nM | 
Cc1c(COc2cc(OCc3cncc(C#N)c3)c(CN3CCC[C@H]3C(=O)O)cc2Cl)cccc1-c1cccc(C(=O)N(C)C)c1C [Example 4031, (5-chloro-2-((5-cyanopyridin-3-yl)methoxy)-4-((3′-(dimethylcarbamoyl)-2,2′-dimethyl-[1,1′-biphenyl]-3-yl)methoxy)benzyl)-L-proline] | 2010 to 10000 nM | 
Cc1c(COc2cc(OCc3cncc(C#N)c3)c(CN3C[C@H](O)C[C@H]3C(=O)O)cc2Cl)cccc1-c1cccc(C(=O)N(C)C)c1C [Example 4032, (2S,4R)-1-(5-chloro-2-((5-cyanopyridin-3-yl)methoxy)-4-((3′-(dimethylcarbamoyl)-2,2′-dimethyl-[1,1′-biphenyl]-3-yl)methoxy)benzyl)-4-hydroxypyrrolidine-2-carboxylic Acid] | 100 to 2000 nM | 
